Each structure is given as a SMILES string. Values after ≈ are worked out from the molar mass of the structure shown. “Also recorded” adds a separate entry of the source. Where two headings read alike, the source gives them in different places.

Data set [1] is described as follows: Kinetic solubility (MultiScreen Solubility filter plate, UV). The data set is classed as physicochemical. The conditions noted are these: aqueous buffer with 2% DMSO, kinetic from dmso stock, 260 nm. On the procedure:
The tested compound was dissolved in DMSO to reach a 10-mM concentration and then poured into an aqueous solvent (a phosphate buffer, water, or universal buffers of different pH values) to bring the concentration down to 200 μM. The resulting solution placed in a 96-well filter plate (Millipore's MultiScreen Solubility Filter Plate) was incubated for an hour at room temperature on a shaker, and the residue was filtered off in vacuo. The absorption spectrum of the compound was recorded on a spectrophotometer in a range of 240-400 nm with a 10-nm increment. […] The range of estimated concentrations was 3-200 μM. The test procedure was performed in duplicate.
Six standard samples with concentrations of 0, 3.125, 12.5, 50, 100, and 200 μM were prepared in the wells of a UV 96-well plate by adding 4 μl of corresponding 50× stock solutions in DMSO to 196 μl of a buffer comprising 40% acetonitrile. The concentration of DMSO in all points was constant and equal to 2% (v/v).
To plot calibration curves, the optical spectrum of the UV plate was recorded in a wavelength range of 250 400 nm with a 10-nm increment. Based on the spectral data for each compound, wavelengths were selected to meet the following criteria:
For minimum compound concentration, OD>0.1 (AU);
For maximum compound concentration, OD<2.0.
For each compound, a calibration curve was plotted with OD at selected wavelength as a function of concentration.
Solubility was evaluated in a MultiScreen Solubility (Millipore Corp.) filter plate as follows:
Into each well of the MultiScreen Solubility filter plate, 196 μl of a buffer (without acetonitrile) and 4 μl of a 10-mM compound in DMSO or 4 μl of DMSO (for a blank matrix) were added. The plate was incubated for one hour on a shaker (400 rpm) at room temperature.
The resulting solutions were filtered off through the filter plate by means of vacuum (10″ Hg) into a polypropylene plate with a U-shaped bottom.
From the U-bottom plate, the filtrate (120 μl/well) was transferred into a new UV plate, where to acetonitrile (80 μl/well) was added.
The optical density of resulting solutions for a pre-selected wavelength was measured for each compound.
The final compound concentration in the filtrate was computed as follows:
Cfiltrate=(ODλFiltrate-ODλBlank)/Slope×1.67,

Data set [2] is described as follows: Pharmacokinetics of triphosphate PSI-7409 in rat liver after peroral administration. The conditions noted are these: comparison of Cmax and AUC24h in rat liver. The format is in vivo, Sprague Dawley rats. The procedure: The tested composition was administered at a dose of 50 mg/kg. To this end, compositions were prepared with a concentration of prodrug 1.1 or Sovaldi® of 5.0 mg/ml in a 0.5% solution of hydroxypropyl methylcellulose (HPMC), to which 5% ethanol was added, as follows: to a weighed portion of the prodrug of formula 1.1 or Sovaldi®, an appropriate amount of HPMC was added, and the mixture was triturated dry in a mortar, whereafter a proper quantity of 5% ethanol in distilled water was gradually added portionwise, and the mixture was carefully stirred to obtain a suspension suitable for intragastric administration.
The study was carried out on Sprague Dawley rats. The rats were divided into groups of 6 based on selected time points (1, 2, 4, 6, 8, 10, 12, 16, and 24 h). The rats were weighed, and the volume of compositions comprising the prodrug of formula 1.1 or Sovaldi® was calculated for each animal at a rate of 10 ml/kg. Compositions comprising the prodrug of formula 1.1 or Sovaldi® were administered intragastrically through a feeding tube. […]
Samples were analyzed using an HPLC-MS/MS technique, wherein the HPLC system Agilent 1290 Infinity II was combined with the AB Sciex QTrap 5500 mass spectrometer. […] PSI-7409 and H027-4261 were recorded in MRM mode with ion transitions of 499/159 and 410/150, respectively. […]

Take `C[C@H](N[P@](=O)(OC[C@H]1O[C@@H](n2ccc(=O)[nH]c2=O)[C@](C)(F)[C@@H]1O)Oc1ccccc1)C(=O)OC1CCC1` [Prodrug 1.1, cyclobutyl (S)-2-{(S)-[(2R,3R,4R,5R)-5-(3,4-dihydro-2,4-dioxo-2H-pyrimidin-1-yl)-3-hydroxy-4-methyl-4-fluoro-tetrahydro-furan-2-ylmethoxy]-phenoxy-phosphorylamino}-propanoate]: the solubility at 1 h in data set [1] (pH 2, aqueous buffer, recrystallized from acetic acid, polycrystal, read-out: Solubility at pH 2) is 630 µg/mL (≈ 1160 µM); in data set [1] (pH 2, aqueous buffer, recrystallized from dimethyl sulfoxide, crystal, read-out: Solubility at pH 2) it was 180 µg/mL (≈ 332 µM); in data set [1] (pH 2, aqueous buffer, recrystallized from ethanol, polycrystal, read-out: Solubility at pH 2) it was 200 µg/mL (≈ 369 µM); in data set [1] (pH 2, aqueous buffer, recrystallized from ethyl acetate and methyl-tert-butyl ether mixture, polycrystal, read-out: Solubility at pH 2), 250 µg/mL (≈ 462 µM); in data set [1] (pH 2, aqueous buffer, recrystallized from ethyl acetate, polycrystal, read-out: Solubility at pH 2) it was 220 µg/mL (≈ 406 µM); in data set [1] (pH 7, aqueous buffer, recrystallized from acetic acid, polycrystal, read-out: Solubility at pH 7) it was 670 µg/mL (≈ 1240 µM). Moreover, the solubility at 1 h worked out at 180 µg/mL (≈ 332 µM) in data set [1] (pH 7, aqueous buffer, recrystallized from dimethyl sulfoxide, crystal, read-out: Solubility at pH 7); 200 µg/mL (≈ 369 µM) in data set [1] (pH 7, aqueous buffer, recrystallized from ethanol, polycrystal, read-out: Solubility at pH 7); 240 µg/mL (≈ 443 µM) in data set [1] (pH 7, aqueous buffer, recrystallized from ethyl acetate and methyl-tert-butyl ether mixture, polycrystal, read-out: Solubility at pH 7); 220 µg/mL (≈ 406 µM) in data set [1] (pH 7, aqueous buffer, recrystallized from ethyl acetate, polycrystal, read-out: Solubility at pH 7). In addition, the “effectiveness of liver metabolism into triphosphate PSI-7409 relative to Sovaldi” value in data set [2] is given as “almost twice more effective; also recorded: almost two times more effectively”.

As a reminder, the solubility is how much of the substance goes into solution per volume.

These data come from patent publication US20190054109A1, “An antiviral composition and a method for application thereof” (ALLA CHEM, LLC, priority 2017, published 2019).
